Numbers after ± are expanded uncertainties.
Assay: of the first substance listed, at infinite dilution; xn = mol fraction of the nth substance listed
Details: 100 kPa, Liquid, isoperibol

Row | partial molar enthalpy (298.15 K, x1 = 0) | partial molar enthalpy (318.15 K, x1 = 0) | partial molar enthalpy (298.15 K, x2 = 1) | partial molar enthalpy (318.15 K, x2 = 1) | SMILES
1 | 5.63 ± 0.11 kJ/mol | 5.1 ± 0.1 kJ/mol | – | – | CN(C)C=O [dimethylformamide] + CCCCCCCCO
2 | – | – | 6.5 ± 0.13 kJ/mol | 6.38 ± 0.13 kJ/mol | CCCCCCCCO [octan-1-ol] + CN(C)C=O
